According to patent US20100010002A1, “ANTICANCER USE OF CAFFEIC ACID AND ITS DERIVATIVES” (Piramal Life Sciences Limited, priority 2006, published 2010):
Read-outs that look alike come from different tables or passages of the source.

Experiments:
K562 = assay: CCK-8 cell proliferation and cytotoxicity assay, K562; type: cell-based, Human; conditions: read-out: Inhibitory concentration (IC50), K562
Ba/F3 Bcr-Abl/WT = target: T1, Ba/F3 Bcr-Abl/WT (Homo sapiens, UniProt P00519); assay: CCK-8 assay, Ba/F3 Bcr-Abl/WT; type: cell-based; conditions: CCK-8, 72 h, imatinib mesylate sensitive; read-out: Inhibitory concentration (IC50), Ba/F3 Bcr-Abl/WT
T1 construct: fused on or other part: P11274 (Breakpoint cluster region protein)
From the text: (§1) The cell lines described in Table 3 were used to test the antiproliferative activity of test compounds.
(§2) Cell Counting Kit-8 (CCK-8) allows very convenient assay by utilizing Dojindo's highly water-soluble tetrazolium salt. CCK-8, being nonradioactive, allows sensitive colorimetric assay for the determination of number of viable cells in cell proliferation and cytotoxicity assays. The amount of the formazan dye generated by dehydrogenases in cells is directly proportional to the number of living cells. Thus, the CCK-8 assay can also be substituted for the H^3-Thymidine incorporation assay.
(§3) Plates were further incubated at 37° C., 5% CO2 incubator for 72 h. 10 μl of the CCK-8 solution was added to each well and plate was incubated for 1-4 h in the incubator. Measured the absorbance at 450 nm using a microplate reader.
(§4) A. The percent inhibition and IC50 were calculated in comparison with control values.

Ba/F3 Bcr-Abl/T315I = Ba/F3 Bcr-Abl/T315I (Homo sapiens, UniProt P00519, T315I, cells depend on it)
From the text: as §1, §2, §3, §4

Ba/F3 Bcr-Abl/E255K = target: T2, Ba/F3 Bcr-Abl/E255K (Homo sapiens, UniProt P00519, E255K, cells depend on it); assay: CCK-8 assay, Ba/F3 Bcr-Abl/E255K; type: cell-based
T2 construct: fused on or other part: P11274 (Breakpoint cluster region protein)

Ba/F3 Bcr-Abl/E255V = target: T3, Ba/F3 Bcr-Abl/E255V (Homo sapiens, UniProt P00519, E255V, cells depend on it); assay: CCK-8 assay, Ba/F3 Bcr-Abl/E255V; type: cell-based
T3 construct: fused on or other part: P11274 (Breakpoint cluster region protein)

Ba/F3 Bcr-Abl/F317L = target: T4, Ba/F3 Bcr-Abl/F317L (Homo sapiens, UniProt P00519, F317L, cells depend on it); assay: CCK-8 assay, Ba/F3 Bcr-Abl/F317L; type: cell-based
T4 construct: fused on or other part: P11274 (Breakpoint cluster region protein)

Ba/F3 Bcr-Abl/F359V = target: T5, Ba/F3 Bcr-Abl/F359V (Homo sapiens, UniProt P00519, F359V, cells depend on it); assay: CCK-8 assay, Ba/F3 Bcr-Abl/F359V; type: cell-based
T5 construct: fused on or other part: P11274 (Breakpoint cluster region protein)

Ba/F3 Bcr-Abl/H396P = target: T6, Ba/F3 Bcr-Abl/H396P (Homo sapiens, UniProt P00519, H396P, cells depend on it); assay: CCK-8 assay, Ba/F3 Bcr-Abl/H396P; type: cell-based
T6 construct: fused on or other part: P11274 (Breakpoint cluster region protein)

Ba/F3 Bcr-Abl/H396R = target: T7, Ba/F3 Bcr-Abl/H396R (Homo sapiens, UniProt P00519, H396R, cells depend on it); assay: CCK-8 assay, Ba/F3 Bcr-Abl/H396R; type: cell-based
T7 construct: fused on or other part: P11274 (Breakpoint cluster region protein)

Ba/F3 Bcr-Abl/M244V = target: T8, Ba/F3 Bcr-Abl/M244V (Homo sapiens, UniProt P00519, M244V, cells depend on it); assay: CCK-8 assay, Ba/F3 Bcr-Abl/M244V; type: cell-based
T8 construct: fused on or other part: P11274 (Breakpoint cluster region protein)

Ba/F3 Bcr-Abl/M351T = target: T9, Ba/F3 Bcr-Abl/M351T (Homo sapiens, UniProt P00519, M351T, cells depend on it); assay: CCK-8 assay, Ba/F3 Bcr-Abl/M351T; type: cell-based
T9 construct: fused on or other part: P11274 (Breakpoint cluster region protein)

Ba/F3 Bcr-Abl/Q252H = target: T10, Ba/F3 Bcr-Abl/Q252H (Homo sapiens, UniProt P00519, Q252H, cells depend on it); assay: CCK-8 assay, Ba/F3 Bcr-Abl/Q252H; type: cell-based
T10 construct: fused on or other part: P11274 (Breakpoint cluster region protein)

Ba/F3 Bcr-Abl/Y253F = target: T11, Ba/F3 Bcr-Abl/Y253F (Homo sapiens, UniProt P00519, Y253F, cells depend on it); assay: CCK-8 assay, Ba/F3 Bcr-Abl/Y253F; type: cell-based
T11 construct: fused on or other part: P11274 (Breakpoint cluster region protein)

Ba/F3 Bcr-Abl/Y253H = target: T12, Ba/F3 Bcr-Abl/Y253H (Homo sapiens, UniProt P00519, Y253H, cells depend on it); assay: CCK-8 assay, Ba/F3 Bcr-Abl/Y253H; type: cell-based
T12 construct: fused on or other part: P11274 (Breakpoint cluster region protein)

[1] = mouse, ba/f3 bcr-abl/t315i, 72 h
[2] = read-out: Inhibitory concentration (IC50), Ba/F3 Bcr-Abl/T315I, CCK-8, 72 h, imatinib mesylate resistant, Table 4
[3] = CCK-8, 72 h, imatinib mesylate sensitive K562

SMILES | GI50 (Ba/F3 Bcr-Abl/WT) | GI50 (Ba/F3 Bcr-Abl/T315I; [1]) | GI50 (Ba/F3 Bcr-Abl/T315I; [2]) | GI50 (Ba/F3 Bcr-Abl/E255K; mouse, 72 h) | GI50 (Ba/F3 Bcr-Abl/E255V; mouse, 72 h) | GI50 (Ba/F3 Bcr-Abl/F317L; mouse, 72 h) | GI50 (Ba/F3 Bcr-Abl/F359V; mouse, 72 h) | GI50 (Ba/F3 Bcr-Abl/H396P; mouse, 72 h) | GI50 (Ba/F3 Bcr-Abl/H396R; mouse, 72 h) | GI50 (Ba/F3 Bcr-Abl/M244V; mouse, 72 h) | GI50 (Ba/F3 Bcr-Abl/M351T; mouse, 72 h) | GI50 (Ba/F3 Bcr-Abl/Q252H; mouse, 72 h) | GI50 (Ba/F3 Bcr-Abl/Y253F; mouse, 72 h) | GI50 (Ba/F3 Bcr-Abl/Y253H; mouse, 72 h) | IC50 (K562; Homo sapiens, K562, 72 h) | IC50 (K562; [3]) | further results
O=C(/C=C/c1ccc(O)c(O)c1)N1CCN(c2ccccc2)CC1 [Compound 13, (E)-3-(3,4-dihydroxy-phenyl)-1-(4-phenylpiperazin-1-yl)-propenone] | 27 ± 8.5 µM |  | 26.6 ± 6.5 µM |  |  |  |  |  |  |  |  |  |  |  |  | 33.5 µM | 
O=C(C=Cc1ccc(O)c(O)c1)N1CCC(Cc2ccccc2)CC1 [Compound 19, 1-(4-Benzyl-piperidin-1-yl)-3-(3,4-dihydroxy-phenyl)-propenone] | 4.2 ± 1.3 µM |  | 2.7 ± 0.5 µM |  |  |  |  |  |  |  |  |  |  |  |  | 5.7 µM | GI50 (Ba/F3 Bcr-Abl/T315I; ba/f3 bcr-abl/t315i): 2.1 µM; GI50 (Ba/F3 Bcr-Abl/E255K): 1.5 µM; GI50 (Ba/F3 Bcr-Abl/E255V): 0.8 µM; GI50 (Ba/F3 Bcr-Abl/F317L): 1.1 µM; GI50 (Ba/F3 Bcr-Abl/F359V): 2.4 µM; GI50 (Ba/F3 Bcr-Abl/H396P): 2.8 µM; GI50 (Ba/F3 Bcr-Abl/H396R): 1.4 µM; GI50 (Ba/F3 Bcr-Abl/M244V): 1 µM; GI50 (Ba/F3 Bcr-Abl/M351T): 2.1 µM; GI50 (Ba/F3 Bcr-Abl/Q252H): 1.1 µM; GI50 (Ba/F3 Bcr-Abl/Y253F): 1 µM; GI50 (Ba/F3 Bcr-Abl/Y253H): 1 µM
O=C(C=Cc1ccc(O)c(O)c1)N1CCN(Cc2ccccc2)CC1 [Compound 10, 1-(4-Benzyl-piperazin-1-yl) 3-(3,4-dihydroxy-phenyl)-propenone] | 2.8 ± 0.4 µM |  | 2.5 ± 1.5 µM |  |  |  |  |  |  |  |  |  |  |  |  | 18 µM | GI50 (Ba/F3 Bcr-Abl/T315I; ba/f3 bcr-abl/t315i): 3.1 µM; GI50 (Ba/F3 Bcr-Abl/E255K): 2.4 µM; GI50 (Ba/F3 Bcr-Abl/E255V): 2.1 µM; GI50 (Ba/F3 Bcr-Abl/F317L): 1.2 µM; GI50 (Ba/F3 Bcr-Abl/F359V): 2.6 µM; GI50 (Ba/F3 Bcr-Abl/H396P): 3.7 µM; GI50 (Ba/F3 Bcr-Abl/H396R): 1 µM; GI50 (Ba/F3 Bcr-Abl/M244V): 1.3 µM; GI50 (Ba/F3 Bcr-Abl/M351T): 2.2 µM; GI50 (Ba/F3 Bcr-Abl/Q252H): 1.5 µM; GI50 (Ba/F3 Bcr-Abl/Y253F): 1.1 µM; GI50 (Ba/F3 Bcr-Abl/Y253H): 2.5 µM
CCN1CCN(C(=O)C=Cc2ccc(O)c(O)c2)CC1 [Compound 9, 3-(3,4-Dihydroxy-phenyl)-1-(4-ethyl-piperazin-1-yl)-propenone] | 40.6 ± 16.4 µM |  | 43.1 ± 27.9 µM |  |  |  |  |  |  |  |  |  |  |  |  | 59.5 µM | 
O=C(O)/C=C/c1ccc(O)c(O)c1 [Compound 1, 3-(3,4-Dihydroxy-phenyl)-acrylic acid [caffeic acid]] | > 100 µM | > 100 µM | > 100 µM | > 100 µM | > 100 µM | > 100 µM | > 100 µM | > 100 µM | > 100 µM | > 100 µM | > 100 µM | > 100 µM | > 100 µM | > 100 µM | > 100 µM |  | 

Now from value to compound, other results behind:

GI50 (Ba/F3 Bcr-Abl/WT) | GI50 (Ba/F3 Bcr-Abl/T315I; [1]) | GI50 (Ba/F3 Bcr-Abl/T315I; [2]) | GI50 (Ba/F3 Bcr-Abl/E255K; mouse, 72 h) | GI50 (Ba/F3 Bcr-Abl/E255V; mouse, 72 h) | GI50 (Ba/F3 Bcr-Abl/F317L; mouse, 72 h) | GI50 (Ba/F3 Bcr-Abl/F359V; mouse, 72 h) | GI50 (Ba/F3 Bcr-Abl/H396P; mouse, 72 h) | GI50 (Ba/F3 Bcr-Abl/H396R; mouse, 72 h) | GI50 (Ba/F3 Bcr-Abl/M244V; mouse, 72 h) | GI50 (Ba/F3 Bcr-Abl/M351T; mouse, 72 h) | GI50 (Ba/F3 Bcr-Abl/Q252H; mouse, 72 h) | GI50 (Ba/F3 Bcr-Abl/Y253F; mouse, 72 h) | GI50 (Ba/F3 Bcr-Abl/Y253H; mouse, 72 h) | SMILES | IC50 (K562; Homo sapiens, K562, 72 h) | IC50 (K562; [3]) | further results
2.4 ± 0.8 µM | 0.6 µM | 0.7 ± 0.1 µM | 2.9 µM | 3.4 µM | 1.6 µM | 2.5 µM | 5.6 µM | 1.1 µM | 3 µM | 2.2 µM | 1.7 µM | 1.7 µM | 3.3 µM | CCCOC(=O)C=Cc1ccc(O)c(O)c1 [Compound 5, 3-(3,4-Dihydroxy-phenyl)-acrylic acid n-propyl ester] | 13.5 ± 2.1 µM |  | 
> 30 µM |  | > 30 µM |  |  |  |  |  |  |  |  |  |  |  | CN1CCC(N2CCN(C(=O)/C=C/c3ccc(O)c(O)c3)CC2)CC1 [Compound 12, (E)-3-(3,4-dihydroxy-phenyl)-1-[4-(1-methyl-piperidin-4-yl)piperazin-1-yl]-propenone] |  | > 30 µM | 
3.3 ± 0.9 µM | 1.1 µM | 2.3 ± 0.9 µM | 6.7 µM | 10.2 µM | 12.3 µM | 13.4 µM | 16.6 µM | 8.6 µM | 15.2 µM | 8.7 µM | 8.4 µM | 6.4 µM | 13.2 µM | CCOC(=O)C=Cc1ccc(O)c(O)c1 [Compound 3, 3-(3,4-Dihydroxy-phenyl)-acrylic acid ethyl ester] | 11.8 ± 8.8 µM |  | 
2.3 ± 1.1 µM | 2 µM | 1.7 ± 1.1 µM | 5.1 µM | 9.9 µM | 11.3 µM | 14.6 µM | 10.8 µM | 7 µM | 9.8 µM | 5.1 µM | 5.9 µM | 5.2 µM | 13.3 µM | CC(C)OC(=O)C=Cc1ccc(O)c(O)c1 [Compound 6, 3-(3,4-Dihydroxy-phenyl)-acrylic acid i-propyl ester] | 16.5 ± 2.1 µM |  | 
19.4 ± 8.8 µM |  | 9.5 ± 4.1 µM |  |  |  |  |  |  |  |  |  |  |  | CC(C)NC(=O)/C=C/c1ccc(O)c(O)c1 [Compound 18, (E)-3-(3,4-dihydroxy-phenyl)-N-isopropyl-acrylamide] | 32.1 µM |  | 
